This experiment in a line: Phase 3 study, ERT-naïve Fabry patients: renal function assessment (eGFRCKD-EPI, mGFRiohexol). The class given is in vivo, human. How it is done: Patient Enrollment. […] Study Design. […] Renal Function Assessment. Annualized rates of change (mL/min/1.73 m^2/year) were calculated using Chronic Kidney Disease Epidemiology Collaboration-[…]) and measured iohexol clearance-mGFRiohexol). For all outcomes except GL-3 inclusions per kidney interstitial capillary, data are pooled for patients within phenotype subgroups regardless of treatment allocation for the first six months (migalastat or placebo).

Where [1] appears, read: overall amenable population, baseline to month 24.

For `OC[C@H]1NC[C@H](O)[C@@H](O)[C@H]1O` [migalastat], the “mean (SD) annualized rate of change in eGFRCKD-EPI” value was −0.3 (3.76) mL/min/1.73 m^2 (classic male subgroup, baseline (or month 6 for patients randomized to placebo) to month 24, 150 mg migalastat hydrochloride every other day) and −0.3 (4.47) mL/min/1.73 m^2 (other patients subgroup, baseline (or month 6) to month 24). For the same molecule, the “mean (SD) annualized rate of change in mGFRiohexol” value (classic males, baseline (or month 6) to month 24) is listed as −3.0 (6.04) mL/min/1.73 m^2 and the “mean (SD) annualized rate of change in mGFRiohexol” value (other patients, baseline (or month 6) to month 24) is −1.0 (6.66) mL/min/1.73 m^2. Further, the median change in mGFRiohexol by setting is: (classic males, baseline to month 24) -1.03 mL/min/1.73 m²; (other patients, baseline to month 24) -0.34 mL/min/1.73 m². This molecule gave a reduction in mGFRiohexol in one classic patient (one classic patient, month 6 to month 24) of -16 mL/min/1.73 m². In addition, under setting [1], the “annualized change in eGFRCKD-EPI” value is on record as −0.3 (0.66) mL/min/1.73 m^2. Also, the “annualized change in mGFRiohexol” value under setting [1] is −1.5 (1.33) mL/min/1.73 m^2.
